{
  "source": "patent US20110014185A1",
  "about": "“METHODS INVOLVING GRAF POLYPEPTIDES” (priority 2008, published 2011)",
  "key": {"[1]": {"system": "HeLa cells", "experiment": "GRAF1 localisation by immunofluorescent staining", "type": "cell-based, human", "conditions": "for colocalisation of GRAF1 with focal complex markers / number of GRAF1-positive tubules: 40 uM Y-27632 for 40 minutes", "method": "FIG. 8 GRAF1 mediated trafficking is dependent upon dynamin and small G-proteins. a, HeLa cells incubated either with medium including vehicle (DMSO) or 50 um dynasore for 15 minutes before addition of dextran to these, cells for a further 15 minutes, (with DMSO/dynasore concentrations being retained throughout), before fixation and staining for GRAF1, dextran and paxillin. […] Note the absence of GRAF1-positive tubules in transfected cells. Scale bars=10 um. […] Note that endogenous GRAF1 tubes originate from within rings of beta1-integrins (a). […] Protein expression and purification Antibodies and constructs used are described in supplemental methods. Recombinant proteins were expressed in a BL21 (DE3) pLysS E-coli strain as Glutathione Stransferase (GST)-fusion proteins and purified using glutathione-Sepharose 4B beads (Amersham Biosciences) and gel filtration on a sephacryl S-200 column (Amersham) as previously described27. For analysis of endogenous protein expression, cell lines were grown according to instructions from American Tissue Culture Collection, harvested and lysed in 1% NP-40 in PBS supplemented with protease inhibitors. After a 20,000 g centrifugation the supernatant was analysed by SDS-PAGE and immunoblotting. Protein and lipid interaction assays Liposomes from total brain lipids (FOLCH fraction I) (Sigma Aldrich), from synthetic lipids (Avanti Polar Lipids), and liposomes of a specified diameter were generated as previously described10. Liposome binding assays for lipid specificity and curvature sensitivity was performed as previously described10. Briefly, proteins were incubated together with liposomes followed by centrifugation and analysis of the pellet and supernatant by SDS-PAGE and Coomassie staining. For immunoprecipitation experiments, rat brain cytosol was generated by homogenisation of rat brains in buffer (25 mM HEPES, 150 mM NaCl, 1 mM DTT, 0.1% Triton X-100 and protease inhibitors), before centrifugation at 50,000 rpm for 30 mins at 4i ? C. The supernatant was removed and added to protein A Sephorose 4B beads (Amersham Biosciensis) to which antibodies had been previously bound and incubated at 4° C. for 3 hrs. Beads were washed three times in buffer (25 mM HEPES, 150 mM NaCl) supplemented with 1% NP-40, and once in buffer without NP-40 before analysis by SDS-PAGE combined with immunoblotting or Coomassie staining. Pull-down experiments against rat brain cytosol using purified proteins and identification by mass-spectrometry were performed as previously described27. In vitro liposome tubulation assays were performed and analysed as previously described 10. Cell culture and transfections HeLa cells were grown in RPM1 1640 media (GIBCO) supplemented with L-Glutamine and 10% fetal bovine serum and transfected using Genejuice (Novagen) for transient protein expression. For primary cultures, rat hippocampal neurons/astrocytes were prepared by trypsin digestion and mechanical trituration from E18 or P1 Sprague-Dawley rats and plated onto poly L-lysine coated coverslips. Cells were cultured in B27-supplemented Neurobasal media. For GRAF1 depletion, HeLa cells were transfected with stealth siRNAs specific against human GRAF1 (Invitrogen) using Lipofectamine 2000 (Invitrogen) according to manufacturers instructions. Cells were cultured for an additional 48 hrs for efficient silencing of the GRAF1 expression. Stealth Block-it siRNA (Invitrogen) was used as a control. AP2 siRNA was used as previously described28. […]"}, "[2]": {"system": "HeLa cells", "experiment": "tubular dextran uptake by immunofluorescence", "type": "cell-based, human", "conditions": "50 um dynasore 15 minutes before dextran, further 15 minutes", "method": "FIG. 8 GRAF1 mediated trafficking is dependent upon dynamin and small G-proteins. a, HeLa cells incubated either with medium including vehicle (DMSO) or 50 um dynasore for 15 minutes before addition of dextran to these, cells for a further 15 minutes, (with DMSO/dynasore concentrations being retained throughout), before fixation and staining for GRAF1, dextran and paxillin. […] Note the absence of GRAF1-positive tubules in transfected cells. Scale bars=10 um.\nProtein expression and purification Antibodies and constructs used are described in supplemental methods. Recombinant proteins were expressed in a BL21 (DE3) pLysS E-coli strain as Glutathione Stransferase (GST)-fusion proteins and purified using glutathione-Sepharose 4B beads (Amersham Biosciences) and gel filtration on a sephacryl S-200 column (Amersham) as previously described27. For analysis of endogenous protein expression, cell lines were grown according to instructions from American Tissue Culture Collection, harvested and lysed in 1% NP-40 in PBS supplemented with protease inhibitors. After a 20,000 g centrifugation the supernatant was analysed by SDS-PAGE and immunoblotting. […] In vitro liposome tubulation assays were performed and analysed as previously described 10. […]"}, "[3]": {"conditions": "acute ischaemic stroke; cited from earlier work"}, "[4]": {"system": "GRAF1 BAR+PH overexpressing cells", "experiment": "localisation of overexpressed GFP-tagged GRAF1 BAR+PH protein, confocal microscopy", "type": "cell-based", "conditions": "1 uM nocodazole for 1 hr", "source_text": "FIG. 9 Membrane tubules generated by the GRAF1 BAR+PH domain in vivo are mobile structures dependent upon microtubules. a, Representative Coomassie-stained gel of a typical liposome co-sedimentation assay with GST-tagged BAR+PH and liposomes of different diameters quantified in FIG. 2a (P=pellet, S=supernatant). b, Confocal micrographs showing the tubular localisation of overexpressed myc-tagged BAR+PH protein in HeLa cells and the cytoplasmic localisation of a similarly overexpressed protein with a BAR domain mutation (KK131/132EE). Scale bars=10 um. c, Electron micrographs of negatively-stained liposomes incubated in the presence or absence of GST-tagged GRAF1 BAR+PH protein. Note the presence of tubular structures present with BAR+PH protein and their absence in the control incubation. Scale bars=200 nm. d, Confocal micrographs of cells overexpressing GFP-tagged GRAF1 BAR+PH protein left untreated (Panel 1) or treated with 1 uM nocodazole for 1 hr and fixed immediately (Panel 2) or left to recover for 30 mins after nocodazole washout (Panel 3). Cells were then stained for beta-tubulin (lower images). GRAF1 BAR+PH-positive tubular structures were not present in nocodazole treated cells but recovered after nocodazole washout where they are observed to colocalise with beta-tubulin. e, Live cell spinning disc confocal imaging of a GFP-tagged GRAF1 BAR+PHover expressing cell at 20° C. […]"}},
  "note": "“Also recorded” adds a separate entry of the source.",
  "data": [
    {"smiles": "C[C@@H](N)[C@H]1CC[C@H](C(=O)Nc2ccncc2)CC1", "note": "[Y-27632]", "values": [
      {"measurement": "colocalisation of GRAF1 with focal complex markers", "setting": "[1]", "result": "vinculin is found mostly in focal complexes where it co-localises with GRAF1"},
      {"measurement": "number of GRAF1-positive tubules", "setting": "[1]", "result": "increases the number of GRAF1-positive tubules"},
      {"measurement": "colocalisation of GRAF1 with focal complex markers", "setting": "[1]; listed as Rho kinase inhibitor", "result": "increased the colocalisation of GRAF1 with 1-integrin, vinculin and dynamin"},
      {"measurement": "number of GRAF1-positive tubules", "setting": "[1]; listed as Rho kinase inhibitor", "result": "dramatically increased the numbers of GRAF1-positive tubules"}
    ]},
    {"smiles": "O=C(N/N=C/c1ccc(O)c(O)c1)c1cc2ccccc2cc1O", "note": "[dynasore]", "values": [
      {"measurement": "tubular dextran uptake", "setting": "[2]", "result": "loss of tubular endocytosis through the CLIC/GEEC pathway; also recorded: profound reduction in tubular dextran uptake; also recorded: profoundly reduced ability to endocytose dextran in tubular structures"},
      {"measurement": "GRAF1-positive tubular structures / GRAF1 distribution", "setting": "[1]; 50 um dynasore", "result": "redistribute from tubular endocytic membranes to basal complexes; also recorded: reduction in GRAF1-positive tubular structures; also recorded: redistributed in these cells from tubular structures to basal punctae and rings"}
    ]},
    {"smiles": "O=S(=O)(c1cccc2cnccc12)N1CCCNCC1", "note": "[fasudil]", "values": [
      {"measurement": "toxicity in clinical trials", "setting": "[3]", "result": "non-toxic"}
    ]},
    {"smiles": "COC(=O)Nc1nc2ccc(C(=O)c3cccs3)cc2[nH]1", "note": "[nocodazole]", "values": [
      {"measurement": "GRAF1 BAR+PH-positive tubular structures", "setting": "[4]", "result": "not present; also recorded: abolishes the tubular localisation"}
    ]}
  ]
}
